These are literature values, as cited in US11564963B2, “Topical compositions, process of large-scale manufacture, and method of use” (Progeneron, LLC, priority 2017, dated 2023).

≈ marks a conversion by molar mass, not a printed value.

The conditions of data set [1]: rats.
For data set [2], the system named is Gram-negative bacteria and fungi.
The conditions of data set [3]: 20° C.

Turning to `OCc1ccccc1` [Benzyl Alcohol], the LD50 in data set [1] is 1.2 gm/kg.

With `[H]/N=C(\N/C(=N/[H])NCCCCCCNC(=N)NC(=N)Nc1ccc(Cl)cc1)Nc1ccc(Cl)cc1` [Chlorhexidine], the “concentrations required for Gram-negative bacteria and fungi” value in data set [2] was 10 to 73 µg/mL. `NC(=O)c1cccnc1` [Niacinamide]: the pKa entry was “about 3.35”. The solubility in water in data set [3] is 691 mg/mL (≈ 5660 mM).
